In US11136301B2, “Broad spectrum antiviral compounds and uses thereof” (The Regents Of The University Of California, priority 2015, dated 2021):
Entries after “also recorded” stand apart in the source; their conditions may differ. Like-named read-outs stand apart in the source and are kept apart here.

Assays:
[1] = system: wild-type HIV-1 (HIV-1LAI) in H9 cells (non-permissive); assay: microbe, parasite or virus in culture; assay type: cell-based; conditions: for antiviral activity against HIV-1 (in words): HIV-1 replication
[2] = system: HA-tagged A3G and GFP-tagged Vif or ΔVif in 293FT cells; assay: Immunoblot of A3G and Vif levels in transfected 293FT cells; conditions: 16 h; for upregulation of A3G and downregulation of Vif (immunoblots, FIG. 16): 293FT cells, 50 μM
[3] = Water solubility of choline salts; assay type: physicochemical
[4] = system: A3G and Vif levels in HSP90 or Cul5 knockdown cells; assay: Knockdown of Hsp90 and Cul5 followed by IMA82 treatment, immunoblot
[5] = system: HSP90; assay: ViTAP (Vif inhibitor Target Affinity Purification): streptavidin affinity purification of compound-bound proteins; assay type: binding; conditions: transfected 293FT cells, streptavidin affinity purification
[6] = system: HSP90-A3G interaction (GST-Hsp90, recombinant human A3G); assay: In vitro binding of purified GST-HSP90 and recombinant A3G; conditions: purified proteins, 50 μM in 1% DMSO
[7] = system: Vif-A3G-HSP90-Cul5-CBF-β E3 ligase complex; assay: Immunoprecipitation of IMA82-interacting proteins / E3 ligase complex; assay type: cell-based
Experimental: Cells were washed twice with PBS and lysed in IP lysis buffer (Thermo) or in a buffer composed of 50 mM Tris-HCl (pH 7.2), 150 mM NaCl, 1% NP-40, 10% glycerol, and protease inhibitor cocktail. Cell lysates ([…]) were incubated with 5 μl of rat anti-HA (Roche), rabbit anti-GFP (Cell Signaling), mouse anti-Hsp90 (Millipore), or rabbit anti-Cul5 (Sigma) plus 30 μl of protein A or G DYNABEADS® (Invitrogen) and rotated at RT for 2 h. The beads were washed three times with PBS containing 0.05% Tween 20. Each lysate was immunoprecipitated in triplicate and the beads were combined. Immune complexes were eluted by boiling in 5×SDS sample buffer. The proteins were separated by SDS-PAGE and analyzed by immunoblotting with antibodies to HA (A3G), GFP (Vif), Hsp90, Cul5, and CBF-β, as described above.

[8] = system: polyubiquitination of A3G and Vif; assay: Ubiquitination assay in 293FT cells; assay type: cell-based; conditions: 293FT cells expressing HA-A3G and GFP-Vif, 10 μM, ALLN
Experimental: Cells were incubated with or without 10 μM of IMA82, IMD55, or IMD64 for 16 h, and then with or without 10 μM of the calpain inhibitor ALLN for 4 h. The cells were washed once with PBS and lysed. Samples of 200 μg protein were immunoprecipitated by the addition of rat anti-HA (Roche) or mouse anti-GFP (Wako) antibodies (7 μg) and 50 μl protein G DYNABEADS® (Invitrogen) and rotated at RT for 2 h. The beads were washed three times with PBS containing 0.05% Tween 20 and boiled in 5×SDS sample buffer. The denatured proteins were resolved and electroblotted onto PVDF membranes. The membranes were probed with rabbit anti-ubiquitin, rabbit anti-HA, or rabbit anti-GFP antibodies, as described above.

[9] = system: A3G, Vif, p24, HSP90 in HIV-1LAI-infected H9 and MT4 cells; assay: Protein analysis (immunoblot) of HIV-1 infected H9 and MT4 cells; assay type: cell-based; conditions: for HIV-1 p24 levels: 72 h
Experimental: Non-permissive (H9) and permissive (MT4) cells were treated with 1% DMSO, IMA82, or 17-DMAG overnight and then infected with HIV-1LAI for 5 h. Cells were washed three times with PBS and cultured in medium for 72 h in the presence of the same concentrations of DMSO, IMA82, or 17-DMAG. Total cell lysates were prepared with M-PER buffer containing 0.5% Triton X-100, 150 mM NaCl, 5 mM EDTA, and protease inhibitor cocktail. Protein concentrations were determined with the DC protein assay kit (Bio-Rad). Immunoblotting was performed as described above.

[10] = system: A3G and Vif levels in HSP90 or Cul5 knockdown cells
[11] = system: Zika virus; assay: Zika viral replication inhibition; assay type: cell-based; conditions: FIG. 20
[12] = system: Ebola virus; assay type: cell-based; conditions: FIG. 19
[13] = system: wild-type HIV-1 (HIV-1LAI) in MT-4 cells (permissive); assay: Antiviral activity assay: wild-type HIV-1 in permissive MT4 cells, reverse transcriptase activity in culture supernatants; assay type: cell-based
[14] = Human immunodeficiency virus 1, H9, read-out: Antiviral activity (IC50 μM) H9 Cells, Table 4, wild-type HIV-1, non-permissive H9 cells
[15] = Human immunodeficiency virus 1, H9, read-out: Antiviral activity (IC50 μM) H9 Cells, Table 7, wild-type HIV-1, non-permissive H9 cells
[16] = Human immunodeficiency virus 1, H9, read-out: IC50, anti-HIV-1 activity, non-permissive H9 cells
[17] = Human immunodeficiency virus 1, H9, read-out: Antiviral activity (IC50 μM) H9 cells, Table 5, wild-type HIV-1, non-permissive H9 cells
[18] = Human immunodeficiency virus 1, H9, read-out: Antiviral activity (IC50 μM) H9 cells, Table 8, wild-type HIV-1, non-permissive H9 cells
[19] = Human immunodeficiency virus 1, H9, read-out: Antiviral activity (IC50 μM) H9 cells, wild-type HIV-1 (HIV-1LAI), H9 cells (non-permissive), RT activity in culture supernatants, compounds 1 to 50 μM
[20] = Human immunodeficiency virus 1, H9, read-out: Antiviral activity (IC50 μM) H9, Table 2, wild-type HIV-1, non-permissive H9 cells
[21] = Human immunodeficiency virus 1, MT4, Table 2, wild-type HIV-1, permissive MT4 cells, read-out: Antiviral activity (IC50 μM) MT4
[22] = Human immunodeficiency virus 1, MT4, wild-type HIV-1 (HIV-1LAI), MT4 cells (permissive), RT activity in culture supernatants, compounds 1 to 50 μM, read-out: Antiviral activity (IC50 μM) MT4 cells

Compound	antiviral activity against HIV-1 (in words) [1]	IC50 [1, 14] [µM]	IC50 [1, 15] [µM]	IC50 [1, 16] [µM]	upregulation of A3G and downregulation of Vif (immunoblots, FIG. 16) [2]	water solubility [3]	IC50 [1, 17] [µM]	IC50 [1, 18] [µM]	IC50 [1, 19] [µM]	Ebola viral replication [12]	IC50 [1, 20] [µM]	IC50 [13, 21] [µM]	IC50 [13, 22] [µM]	other results
COc1ccc(OC)c(-n2cc(-c3ccccc3S(=O)(=O)c3ccc(C(=O)O)cc3)nn2)c1 [Compound 5gy, 2-Hydroxy-N,N,N-trimethylethanaminium 4-((2-(1-(2,5-dimethoxyphenyl)-1H-1,2,3-triazol-4-yl)phenyl)sulfonyl)benzoate]	potent activities	0.5	0.5	0.5	same mechanism as of RN-18; also recorded: same mechanism as observed for RN-18 and 1d	water-soluble								
COc1cc(C(=O)NCCOCCOCCOCCNC(=O)CCCCC2SCC3NC(=O)NC32)ccc1NC(=O)c1ccc(Sc2ccc([N+](=O)[O-])cc2)cc1Cl (stereo not drawn) [IMA82, 2-chloro-N-(2-methoxy-4-((13-oxo-17-(2-oxohexahydro-1H-thieno[3,4-d]imidazol-4-yl)-3,6,9-trioxa-12-azaheptadecyl)carbamoyl)phenyl)-4-((4-nitrophenyl)thio)benzamide]														A3G or Vif levels ([4]; Cul5-depleted 293FT-A3G-Vif cells): no further effect; A3G levels ([4]; control siRNA (siNT) 293FT-A3G-Vif cells): rescue of A3G levels; viral replication (reverse transcriptase activity in supernatants) ([1]; H9 cells, HIV-1LAI, up to 50 μM, 15 days): dose-dependently inhibited viral replication; A3G expression ([2]; 293FT cells co-expressing HA-A3G and Vif or ΔVif): dose-dependently restored A3G expression; also recorded: enhances APOBEC3G expression; Vif expression / degradation ([2]; 293FT cells co-expressing HA-A3G and Vif): induces Cul5-mediated degradation of Vif; also recorded: enhanced Vif degradation; also recorded: reduces Vif expression; CBF-β levels ([2]; transfected 293FT cells): no effect on levels of CBF-β; HSP90 expression ([2]; transfected 293FT cells): did not significantly affect expression of HSP90 protein; co-purification of HSP90 (90 kDa protein) with the compound [5]: HSP90 is targeted; also recorded: purified a specific 90 kDa protein; also recorded: co-purified with IMA82; also recorded: specifically interacts with HSP90; A3G binding to GST-HSP90 [6]: block APOBEC3G association; also recorded: inhibited A3G binding to GST-HSP90; HSP90-A3G interaction, FLAG-HSP90 affinity purification ([7]; 293FT cells transfected with FLAG-HSP90 and HA-A3G, 16 h): inhibited interactions of HSP90 and A3G; A3G association with the immunoprecipitated E3 ligase complexes ([7]; 293FT-A3G-Vif and 293FT-A3G-ΔVif cells, 10 μM): prevents APOBEC3G association; also recorded: not present; A3G ubiquitination [8]: not observed; also recorded: reduced; Vif ubiquitination [8]: ubiquitinated; also recorded: increased; A3G levels ([9]; HIV-1-infected H9 cells): restored A3G levels; Vif levels ([9]; HIV-1-infected H9 cells): decreased Vif levels; HIV-1 p24 levels ([9]; HIV-1LAI-infected H9 cells): reduced; HIV-1 p24 levels ([9]; HIV-1LAI-infected MT4 cells): not MT4 cells; A3G or Vif levels [10]: no effect
COc1ccccc1-n1cc(-c2ccccc2S(=O)(=O)c2ccc(C(=O)O)cc2)nn1 [Compound 2gy, 2-Hydroxy-N,N,N-trimethylethanaminium 4-((2-(1-(2-methoxyphenyl)-1H-1,2,3-triazol-4-yl)phenyl)sulfonyl)benzoate]	potent activities			0.2	same mechanism as of RN-18; also recorded: same mechanism as observed for RN-18 and 1d	water-soluble								
COC(=O)c1ccc(Sc2ccccc2-c2cn(-c3ccc(OC)cc3OC)nn2)cc1 [Compound 4bx, Methyl 4-((2-(1-(2,4-dimethoxyphenyl)-1H-1,2,3-triazol-4-yl)phenyl)thio)benzoate]							2	2	2	Ebola viral replication inhibition				Zika viral replication [11]: Zika viral replication inhibition
COc1ccc(-n2cc(-c3ccccc3S(=O)(=O)c3ccc(C(=O)O)cc3)nn2)c(OC)c1 [Compound 4gy, 2-Hydroxy-N,N,N-trimethylethanaminium 4-((2-(1-(2,4-dimethoxyphenyl)-1H-1,2,3-triazol-4-yl)phenyl)sulfonyl)benzoate]	potent activities	0.7	0.7	0.7		water-soluble					0.7	> 50	> 50	
COc1ccc(OC)c(-n2cc(-c3ccccc3S(=O)(=O)c3ccc([N+](=O)[O-])cc3)nn2)c1 [Compound 5ay, 1-(2,5-Dimethoxyphenyl)-4-(2-((4-nitrophenyl)sulfonyl)phenyl)-1H-1,2,3-triazole]		1	1	1 to 3			1	1	1	Ebola viral replication inhibition	1	> 50	> 50	
